Measurements taken from US12233057B2, “Small molecules for inhibiting chemokine activity and/or cancer cells growth” (AlonBio Ltd., priority 2015, dated 2025).
≈ marks a conversion by molar mass, not a printed value.

Key:
[1] = tested on: H345 human small cell lung cancer cells; test: Cancer cell viability assay, propidium iodide staining (FACS); format: cell-based; details: BKT300 at 78% purity, 8.5 μg/ml
Description: (§1) The cancer cells were incubated in cell medium with 1% fetal calf serum (FCS) at a concentration of 2×10^5 cells/well at a final volume of 250 μl in 96-well plate. The tested small molecule was added to the cells at the indicated concentrations. The cells were incubated for 24 hours and the number of dead and viable cells was then evaluated by fluorescence-activated cell sorting (FACS), using propidium iodide (PI) staining. The IC50 of the small molecule-induced cell death was determined using GraphPad Prism software.
(§2) The in vitro effect of BKT300 (at 78% purity) on cancer cell viability was further evaluated using a variety of additional cancer cell lines, using procedures as described hereinabove with respect to MV4-11 cells.

[2] = tested on: H460 human large cell lung cancer cells; test: as above; format: cell-based; details: BKT300 at 78% purity, 10 μg/ml
Description: as §1, §2

[3] = tested on: RPMI human multiple myeloma cells; test: as above; format: cell-based; details: BKT300 at 78% purity, 24 hours
Description: as §1, §2

[4] = tested on: Jurkat human acute lymphoblastic leukemia cells; test: as above; format: cell-based; details: BKT300 at 78% purity, 24 hours
Description: as §1, §2

[5] = tested on: Bjab human lymphoma cells; test: as above; format: cell-based; details: BKT300 at 78% purity, 8.5 μg/ml
Description: as §1, §2

[6] = tested on: Raji human lymphoma cells; test: as above; format: cell-based; details: BKT300 at 78% purity
Description: as §1, §2

SDF-1 = test: Migration assay: Jurkat cells towards SDF-1 (Transwell); format: cell-based, human; details: 10 μg/ml
Description: 600 μl of RPMI medium was added to the lower chambers of Transwell® transmigration plates, supplemented with 2 μg/ml of MIP3a, 100 ng/ml of SDF-1 or 10 ng/ml of MCP-1. The tested small molecule was added to the lower chambers at the indicated concentration, except in control samples. The MIP3a, SDF-1 or MCP-1 was incubated with the small molecule for 30 minutes at room temperature before the initiation of the migration assay. Following 30 minutes of incubation 2×10^5 immune cells were added to the upper chambers of the transmigration plates in a total volume of 100 μl. Cells which migrated within 3 hours to the bottom chamber of the Transwell® plates were counted using a FACScalibur™ flow cytometer.
To evaluate migration towards SDF-1, Jurkat cells were re-suspended in RPMI medium containing 1% fetal calf serum (FCS).

SGK2 = SGK2 (Homo sapiens, UniProt Q9HBY8); test: LanthaScreen europium kinase binding assay; details: BKT300 at 78% purity
Description: (§3) In order to further characterize the effect of BKT300 on cell signaling, kinase profiling of BKT300 (at 78% purity) was performed (by the Life Technologies SelectScreen® Biochemical Profiling Lab) using a LanthaScreen® europium kinase binding assay to screen 440 kinases.
(§4) The principle of the LanthaScreen® assay is depicted in FIG. 13. Binding of an Alexa Fluor® conjugate or “tracer” to a kinase is detected by addition of a europium (Eu)-labeled anti-tag antibody. Binding of the tracer and antibody to a kinase results in a high degree of FRET, whereas displacement of the tracer with a kinase inhibitor results in a loss of FRET. The kinase tracers are based on ATP-competitive kinase inhibitors, making them suitable for detection of any compounds that bind to the ATP site. Inhibitors that bind the ATP site include both Type I kinase inhibitors, which bind solely to the ATP site, and Type II inhibitors (e.g., imatinib, sorafenib, BIRB-796), which bind to both the ATP site and a second site often referred to as the allosteric site.

EPHA8 = EPHA8 (Homo sapiens, UniProt P29322); test: LanthaScreen europium kinase binding assay; details: BKT300 at 78% purity
Description: as §3, §4

STK38L (NDR2) = STK38L (NDR2) (Homo sapiens, UniProt Q9Y2H1); test: LanthaScreen europium kinase binding assay; details: BKT300 at 78% purity
Description: as §3, §4

DAPK2 = DAPK2 (Homo sapiens, UniProt Q9UIK4); test: LanthaScreen europium kinase binding assay; details: BKT300 at 78% purity
Description: as §3, §4

BMPR1A (ALK3) = BMPR1A (ALK3) (Homo sapiens, UniProt P36894); test: LanthaScreen europium kinase binding assay; details: BKT300 at 78% purity
Description: as §3, §4

CLK4 = CLK4 (Homo sapiens, UniProt Q9HAZ1); test: LanthaScreen europium kinase binding assay; details: BKT300 at 78% purity
Description: as §3, §4

ACVRL1 (ALK1) = ACVRL1 (ALK1) (Homo sapiens, UniProt P37023); test: LanthaScreen europium kinase binding assay; details: BKT300 at 78% purity
Description: as §3, §4

MAPK10 (JNK3) = MAPK10 (JNK3) (Homo sapiens, UniProt P53779); test: LanthaScreen europium kinase binding assay; details: BKT300 at 78% purity
Description: as §3, §4

MAP4K2 (GCK) = MAP4K2 (GCK) (Homo sapiens, UniProt Q12851); test: LanthaScreen europium kinase binding assay; details: BKT300 at 78% purity
Description: as §3, §4

STK17A (DRAK1) = STK17A (DRAK1) (Homo sapiens, UniProt Q9UEE5); test: LanthaScreen europium kinase binding assay; details: BKT300 at 78% purity
Description: as §3, §4

MLCK (MLCK2) = MLCK (MLCK2) (Homo sapiens, UniProt Q9H1R3); test: LanthaScreen europium kinase binding assay; details: BKT300 at 78% purity
Description: as §3, §4

DYRK3 = DYRK3 (Homo sapiens, UniProt O43781); test: LanthaScreen europium kinase binding assay; details: BKT300 at 78% purity
Description: as §3, §4

MYLK (MLCK) = MYLK (MLCK) (Homo sapiens, UniProt Q15746); test: LanthaScreen europium kinase binding assay; details: BKT300 at 78% purity
Description: as §3, §4

STK17B (DRAK2) = STK17B (DRAK2) (Homo sapiens, UniProt O94768); test: LanthaScreen europium kinase binding assay; details: BKT300 at 78% purity
Description: as §3, §4

DYRK2 = DYRK2 (Homo sapiens, UniProt Q92630); test: LanthaScreen europium kinase binding assay; details: BKT300 at 78% purity
Description: as §3, §4

PIK3CD = PIK3CD (Homo sapiens, UniProt O00329); test: LanthaScreen europium kinase binding assay; details: BKT300 at 78% purity
Description: as §3, §4

DAPK1 = DAPK1 (Homo sapiens, UniProt P53355); test: LanthaScreen europium kinase binding assay; details: BKT300 at 78% purity
Description: as §3, §4

PIK3CA = PIK3CA (Homo sapiens, UniProt P42336); test: LanthaScreen europium kinase binding assay; details: BKT300 at 78% purity
Description: as §3, §4

CDK11 (Inactive) = CDK11 (Inactive) (Homo sapiens, UniProt Q9BWU1); test: LanthaScreen europium kinase binding assay; details: BKT300 at 78% purity
Description: as §3, §4

SRC N1 = SRC N1 (Homo sapiens, UniProt P12931); test: LanthaScreen europium kinase binding assay; details: BKT300 at 78% purity
Description: as §3, §4

STK38 (NDR) = STK38 (NDR) (Homo sapiens, UniProt Q15208); test: LanthaScreen europium kinase binding assay; details: BKT300 at 78% purity
Description: as §3, §4

Chain of SGK2 (Q9HBY8 whole entry): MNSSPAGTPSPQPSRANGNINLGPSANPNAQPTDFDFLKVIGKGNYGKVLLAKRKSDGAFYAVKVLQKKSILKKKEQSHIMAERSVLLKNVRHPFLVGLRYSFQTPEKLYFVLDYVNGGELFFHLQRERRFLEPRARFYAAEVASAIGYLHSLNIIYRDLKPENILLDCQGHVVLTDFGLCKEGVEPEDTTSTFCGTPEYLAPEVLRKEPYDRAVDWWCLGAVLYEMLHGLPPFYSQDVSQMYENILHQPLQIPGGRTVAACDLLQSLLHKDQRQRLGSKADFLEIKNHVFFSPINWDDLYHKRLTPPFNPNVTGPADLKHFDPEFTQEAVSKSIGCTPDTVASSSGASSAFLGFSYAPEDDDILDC
Chain of DAPK2 (Q9UIK4 whole entry): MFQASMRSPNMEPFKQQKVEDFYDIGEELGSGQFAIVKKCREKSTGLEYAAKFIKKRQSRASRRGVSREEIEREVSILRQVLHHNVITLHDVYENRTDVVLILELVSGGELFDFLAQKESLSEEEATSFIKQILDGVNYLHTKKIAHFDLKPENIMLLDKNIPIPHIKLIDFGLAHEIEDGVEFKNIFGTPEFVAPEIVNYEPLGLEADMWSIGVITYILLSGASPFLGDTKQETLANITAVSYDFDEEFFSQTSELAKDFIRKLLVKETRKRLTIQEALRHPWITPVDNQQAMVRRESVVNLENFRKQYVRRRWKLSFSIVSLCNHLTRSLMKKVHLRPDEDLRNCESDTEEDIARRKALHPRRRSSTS
Chain of CDK11 (Inactive) (Q9BWU1 whole entry): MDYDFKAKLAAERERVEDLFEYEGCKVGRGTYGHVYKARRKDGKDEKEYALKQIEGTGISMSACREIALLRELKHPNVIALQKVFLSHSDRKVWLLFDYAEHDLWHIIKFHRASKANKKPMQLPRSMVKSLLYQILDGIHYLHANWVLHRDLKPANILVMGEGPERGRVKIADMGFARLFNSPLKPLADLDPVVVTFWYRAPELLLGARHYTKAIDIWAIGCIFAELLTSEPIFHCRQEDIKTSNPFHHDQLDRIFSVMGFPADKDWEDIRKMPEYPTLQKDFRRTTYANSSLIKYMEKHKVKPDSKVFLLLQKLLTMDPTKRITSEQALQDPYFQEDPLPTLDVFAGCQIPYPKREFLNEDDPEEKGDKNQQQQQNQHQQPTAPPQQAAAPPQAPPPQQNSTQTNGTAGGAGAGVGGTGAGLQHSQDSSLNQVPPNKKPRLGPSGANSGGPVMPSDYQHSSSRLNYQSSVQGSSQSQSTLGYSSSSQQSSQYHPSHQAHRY
Chain of STK17A (DRAK1) (Q9UEE5 whole entry): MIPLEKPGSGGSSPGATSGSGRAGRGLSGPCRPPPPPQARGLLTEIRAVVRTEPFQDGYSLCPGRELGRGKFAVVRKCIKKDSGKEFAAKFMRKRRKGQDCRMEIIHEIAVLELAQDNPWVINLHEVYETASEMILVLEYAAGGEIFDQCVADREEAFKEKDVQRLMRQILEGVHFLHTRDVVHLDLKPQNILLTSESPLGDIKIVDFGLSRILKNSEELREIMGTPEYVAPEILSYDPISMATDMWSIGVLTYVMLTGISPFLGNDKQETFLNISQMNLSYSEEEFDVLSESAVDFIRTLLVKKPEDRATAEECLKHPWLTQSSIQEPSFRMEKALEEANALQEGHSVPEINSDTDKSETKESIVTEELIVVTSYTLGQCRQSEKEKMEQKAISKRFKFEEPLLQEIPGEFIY
Chain of STK17B (DRAK2) (O94768 whole entry): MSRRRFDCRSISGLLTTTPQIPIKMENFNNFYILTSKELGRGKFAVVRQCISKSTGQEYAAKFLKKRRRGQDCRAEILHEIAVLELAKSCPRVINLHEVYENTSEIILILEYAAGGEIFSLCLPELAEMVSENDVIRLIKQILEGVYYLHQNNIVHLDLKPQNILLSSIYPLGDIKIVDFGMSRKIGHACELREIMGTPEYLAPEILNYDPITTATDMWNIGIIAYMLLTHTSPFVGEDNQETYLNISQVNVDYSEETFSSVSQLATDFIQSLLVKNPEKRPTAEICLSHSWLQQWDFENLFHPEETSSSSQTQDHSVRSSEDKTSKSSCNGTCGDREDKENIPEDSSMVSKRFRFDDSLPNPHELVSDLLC
Chain of BMPR1A (ALK3) (P36894 24-532): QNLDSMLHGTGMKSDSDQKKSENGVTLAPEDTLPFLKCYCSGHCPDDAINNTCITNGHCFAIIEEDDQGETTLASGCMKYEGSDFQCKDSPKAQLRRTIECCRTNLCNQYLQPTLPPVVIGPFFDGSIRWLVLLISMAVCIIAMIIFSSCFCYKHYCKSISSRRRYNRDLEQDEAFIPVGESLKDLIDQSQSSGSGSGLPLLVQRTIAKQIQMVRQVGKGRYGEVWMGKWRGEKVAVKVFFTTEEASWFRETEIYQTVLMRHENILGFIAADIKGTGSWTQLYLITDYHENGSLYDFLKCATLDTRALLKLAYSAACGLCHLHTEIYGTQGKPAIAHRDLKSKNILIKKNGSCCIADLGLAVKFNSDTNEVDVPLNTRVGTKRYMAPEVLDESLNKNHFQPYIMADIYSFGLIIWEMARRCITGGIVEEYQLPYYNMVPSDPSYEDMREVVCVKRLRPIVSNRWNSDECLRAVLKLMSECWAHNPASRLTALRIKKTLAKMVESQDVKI
Chain of CLK4 (Q9HAZ1 whole entry): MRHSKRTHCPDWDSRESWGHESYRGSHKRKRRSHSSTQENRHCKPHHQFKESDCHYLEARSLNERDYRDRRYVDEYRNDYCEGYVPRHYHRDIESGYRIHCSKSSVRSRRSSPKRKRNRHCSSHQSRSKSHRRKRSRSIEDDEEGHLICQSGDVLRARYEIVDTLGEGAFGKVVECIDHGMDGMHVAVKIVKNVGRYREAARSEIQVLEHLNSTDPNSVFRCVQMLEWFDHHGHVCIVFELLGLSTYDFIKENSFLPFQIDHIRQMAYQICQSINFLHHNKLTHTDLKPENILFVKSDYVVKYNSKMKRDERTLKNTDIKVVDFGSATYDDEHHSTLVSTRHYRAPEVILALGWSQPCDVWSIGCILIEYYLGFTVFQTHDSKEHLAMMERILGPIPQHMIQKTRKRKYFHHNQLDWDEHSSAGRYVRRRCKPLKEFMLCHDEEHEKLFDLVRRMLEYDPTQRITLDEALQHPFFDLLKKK
Chain of MAPK10 (JNK3) (P53779 whole entry): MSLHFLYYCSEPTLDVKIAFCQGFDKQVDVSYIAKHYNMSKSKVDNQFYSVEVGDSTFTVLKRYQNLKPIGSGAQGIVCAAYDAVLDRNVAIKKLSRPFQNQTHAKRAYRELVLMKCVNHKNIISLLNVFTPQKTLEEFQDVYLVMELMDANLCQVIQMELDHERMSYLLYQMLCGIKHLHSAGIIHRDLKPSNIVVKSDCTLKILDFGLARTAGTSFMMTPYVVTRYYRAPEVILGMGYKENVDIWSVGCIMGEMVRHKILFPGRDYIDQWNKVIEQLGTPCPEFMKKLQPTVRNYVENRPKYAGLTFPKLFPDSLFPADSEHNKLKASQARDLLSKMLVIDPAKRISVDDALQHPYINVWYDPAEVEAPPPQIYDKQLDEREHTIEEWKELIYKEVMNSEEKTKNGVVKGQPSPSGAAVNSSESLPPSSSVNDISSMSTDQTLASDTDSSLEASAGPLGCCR
Chain of MLCK (MLCK2) (Q9H1R3 whole entry): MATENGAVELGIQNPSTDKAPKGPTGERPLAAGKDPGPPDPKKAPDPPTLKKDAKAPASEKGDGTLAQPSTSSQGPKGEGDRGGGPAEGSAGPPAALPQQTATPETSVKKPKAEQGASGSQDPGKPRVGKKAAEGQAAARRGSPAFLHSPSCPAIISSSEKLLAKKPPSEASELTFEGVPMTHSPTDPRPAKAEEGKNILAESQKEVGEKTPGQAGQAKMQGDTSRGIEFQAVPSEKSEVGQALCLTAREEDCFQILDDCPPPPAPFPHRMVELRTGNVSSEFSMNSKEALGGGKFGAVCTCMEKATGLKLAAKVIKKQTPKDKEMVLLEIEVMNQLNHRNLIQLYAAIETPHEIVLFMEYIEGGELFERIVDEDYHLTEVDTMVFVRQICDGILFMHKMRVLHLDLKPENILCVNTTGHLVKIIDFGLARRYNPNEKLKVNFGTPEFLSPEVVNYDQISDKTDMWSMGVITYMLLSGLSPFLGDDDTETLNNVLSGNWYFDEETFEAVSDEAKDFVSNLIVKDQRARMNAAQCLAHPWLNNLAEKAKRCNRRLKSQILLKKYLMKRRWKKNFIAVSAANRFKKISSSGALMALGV
Chain of ACVRL1 (ALK1) (P37023 22-503): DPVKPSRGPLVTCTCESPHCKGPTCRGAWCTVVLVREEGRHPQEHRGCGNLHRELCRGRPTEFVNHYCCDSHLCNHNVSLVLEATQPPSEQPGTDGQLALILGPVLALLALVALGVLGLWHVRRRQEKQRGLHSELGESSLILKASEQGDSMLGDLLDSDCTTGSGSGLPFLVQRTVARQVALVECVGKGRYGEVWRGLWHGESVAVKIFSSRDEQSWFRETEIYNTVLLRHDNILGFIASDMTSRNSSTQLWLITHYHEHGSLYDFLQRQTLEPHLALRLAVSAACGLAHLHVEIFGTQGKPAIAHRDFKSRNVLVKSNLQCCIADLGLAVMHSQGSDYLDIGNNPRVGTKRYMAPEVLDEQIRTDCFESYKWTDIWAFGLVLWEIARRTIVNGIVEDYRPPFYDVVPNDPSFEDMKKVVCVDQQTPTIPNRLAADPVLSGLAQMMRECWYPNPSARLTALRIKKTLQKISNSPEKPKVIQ

CCCCCc1cc2cc(O)cc(Oc3c(O)cc(O)cc3CCCCC)c2c(=O)o1 [BKT300]
Cell death of H345 cells [1]: over 90% | Cell death of H460 cells [2]: about 80% | Concentration at which cell death of RPMI cells is induced (as low as; lowest tested) [3]: ≤ 2 µg/mL | Concentration at which cell death of Jurkat cells is induced (as low as; lowest tested) [4]: ≤ 2 µg/mL | IC50 ([4]; Homo sapiens, Jurkat, read-out: IC50 for induced death of Jurkat cells): 3.5 µg/mL (≈ 8.21 µM) | Cell death of Bjab cells [5]: about 30% | Cell death of Raji cells ([6]; 4.25 μg/ml): slight cell death | Cell death of Raji cells ([6]; 8.5 μg/ml): about 30% | Inhibition of migration of Jurkat cells towards SDF-1 (SDF-1; BKT300 at 78% purity): significantly inhibited | Inhibition of migration of Jurkat cells towards SDF-1 (SDF-1; BKT300 at 98% purity): significantly inhibited | % Inhibition (SGK2): 43% | % Inhibition (EPHA8): 50% | % Inhibition (STK38L (NDR2)): 45% | % Inhibition (DAPK2): 65% | % Inhibition (BMPR1A (ALK3)): 58% | % Inhibition (CLK4): 73% | % Inhibition (ACVRL1 (ALK1)): 47% | % Inhibition (MAPK10 (JNK3)): 49% | % Inhibition (MAP4K2 (GCK)): 48% | % Inhibition (STK17A (DRAK1)): 48% | % Inhibition (MLCK (MLCK2)): 58% | % Inhibition (DYRK3): 47% | % Inhibition (MYLK (MLCK)): 63% | % Inhibition (STK17B (DRAK2)): 107% | % Inhibition (DYRK2): 62% | % Inhibition (PIK3CD): 77% | % Inhibition (DAPK1): 43% | % Inhibition (PIK3CA): 64% | % Inhibition (CDK11 (Inactive)): 57% | % Inhibition (SRC N1): 41% | % Inhibition (STK38 (NDR)): 41%
